In patent publication US8247211B2, “Glycopeptide antibiotics” (American Cyanamid Company, priority 2001, dated 2012):
Values after ≈ are worked out from the molar mass of the structure shown.

Key:
Assay in all cases: In vitro antibacterial evaluation: minimum inhibitory concentration (MIC), broth dilution method
Assay type in all cases: cell-based
[1] = tested on: Streptococcus sp.
Outline: (§1)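 NCCLS M7-A2 broth dilution with Mueller-Hinton II, testing 64-0.06 μg/mL antibiotic against 5×10^5 CFU/mL inocula. Test strains include recent methicillin-, penicillin- or vancomycin-resistant clinical isolates. MIC is the lowest concentration preventing growth.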

[2] = tested on: Escherichia coli
Outline: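 Values are minimum inhibitory concentrations, meaning the smallest antibiotic concentration that stops growth of the organism. They come from broth dilution in Muller-Hinton II […] per NCCLS guidance (M7-A2), using 5×10^5 CFU/mL and concentrations from 64 to 0.06 μg/mL.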

[3] = tested on: Staphylococcus sp.; settings: for MIC Staphylococcus aureus (ATCC 29213) / MIC Staphylococcus aureus (GC 1131) / MIC Staphylococcus aureus (GC 3051) / MIC Staphylococcus aureus (GC 3053) / MIC Staphylococcus aureus (GC 4541) / MIC Staphylococcus aureus (GC 4542) / MIC Staphylococcus aureus (GC 4544) / MIC Staphylococcus aureus (GC 4545): broth dilution, 18 hours at 35° C.
Outline: as §1

[4] = tested on: Enterococcus sp.
Outline: as §1

[5] = broth dilution, inoculum 5×10^5 CFU/mL, 18 hours at 35° C.

CC(c1ccccc1)C1NC(=O)CNC(=O)C(CO)NC(=O)C(C(O)C2CNC(=N)N2C2OC(CO)C(O)C(O)C2O)NC(=O)C(C(O)C2CNC(=N)N2)NC(=O)C(Cc2ccc(OC3OC(CO)C(OC4OC5COC(c6ccc(Oc7ccc(C(C)(C)C)cc7)cc6)OC5C(O)C4O)C(O)C3O)cc2)NC1=O (stereo not drawn) [Example 181, Cyclo[glycyl-β-methylphenylalanyl-O-[4-O-[4,6-O-[4-(4-tert-butylphenoxy)benzylidene]hexopyranosyl]hexopyranosyl]tyrosyl-3-(2-iminoimidazolidin-4-yl)seryl-3-(3-hexopyranosyl-2-iminoimidazolidin-4-yl)serylseryl]]
MIC Streptococcus agalactiae (GC 4564) [1, 5]: <0.06 µg/mL
MIC Streptococcus pneumoniae (ATCC 6301) [1, 5]: <0.06 µg/mL
MIC Streptococcus pneumoniae (GC 1894) [1, 5]: <0.06 µg/mL
MIC Streptococcus pneumoniae (GC 4565) [1, 5]: <0.06 µg/mL
MIC Streptococcus pyogenes (GC 4563) [1, 5]: 0.5 µg/mL (≈ 0.326 µM)
MIC Streptococcus pneumoniae (ATCC 6301) ([1]; strain ATCC 6301): <0.06 µg/mL
MIC Streptococcus pneumoniae (GC 1894) ([1]; strain GC 1894): <0.06 µg/mL
MIC Streptococcus pyogenes (GC 4563) ([1]; strain GC 4563): 0.5 µg/mL (≈ 0.326 µM)
MIC Streptococcus agalactiae (GC 4564) ([1]; strain GC 4564): <0.06 µg/mL
MIC Streptococcus pneumoniae (GC 4565) ([1]; strain GC 4565): <0.06 µg/mL
MIC Escherichia coli (ATCC 25922) ([2]; strain ATCC 25922): >64 µg/mL
MIC Escherichia coli (GC 4559) ([2]; strain GC 4559): >64 µg/mL
MIC Escherichi coli (GC 4560) ([2]; strain GC 4560): 16 µg/mL (≈ 10.4 µM)
MIC Staphylococcus aureus (ATCC 29213) ([3]; 5×10^5 CFU/mL): 4 µg/mL (≈ 2.61 µM)
MIC Staphylococcus aureus (GC 1131) ([3]; 5×10^5 CFU/mL): 4 µg/mL (≈ 2.61 µM)
MIC Staphylococcus aureus (GC 3051) ([3]; 5×10^5 CFU/mL): 4 µg/mL (≈ 2.61 µM)
MIC Staphylococcus aureus (GC 3053) ([3]; 5×10^5 CFU/mL): 4 µg/mL (≈ 2.61 µM)
MIC Staphylococcus aureus (GC 4541) ([3]; 5×10^5 CFU/mL): 4 µg/mL (≈ 2.61 µM)
MIC Staphylococcus aureus (GC 4542) ([3]; 5×10^5 CFU/mL): 4 µg/mL (≈ 2.61 µM)
MIC Staphylococcus aureus (GC 4544) ([3]; 5×10^5 CFU/mL): 4 µg/mL (≈ 2.61 µM)
MIC Staphylococcus aureus (GC 4545) ([3]; 5×10^5 CFU/mL): 4 µg/mL (≈ 2.61 µM)
MIC Staphylococcus aureus (ATCC 29213) ([3]; strain ATCC 29213): 4 µg/mL (≈ 2.61 µM)
MIC Staphylococcus aureus (GC 1131) ([3]; strain GC 1131): 4 µg/mL (≈ 2.61 µM)
MIC Staphylococcus aureus (GC 3051) ([3]; strain GC 3051): 4 µg/mL (≈ 2.61 µM)
MIC Staphylococcus aureus (GC 3053) ([3]; strain GC 3053): 4 µg/mL (≈ 2.61 µM)
MIC Staphylococcus aureus (GC 4541) ([3]; strain GC 4541): 4 µg/mL (≈ 2.61 µM)
MIC Staphylococcus aureus (GC 4542) ([3]; strain GC 4542): 4 µg/mL (≈ 2.61 µM)
MIC Staphylococcus aureus-SMITH (GC 4543) ([3]; strain GC 4543): 4 µg/mL (≈ 2.61 µM)
MIC Staphylococcus aureus (GC 4544) ([3]; strain GC 4544): 4 µg/mL (≈ 2.61 µM)
MIC Staphylococcus aureus (GC 4545) ([3]; strain GC 4545): 4 µg/mL (≈ 2.61 µM)
MIC Staphylococcus haemolyticus (GC 4546) ([3]; strain GC 4546): 8 µg/mL (≈ 5.22 µM)
MIC Coagulase Negative Staphylococcus (GC 4547) ([3]; strain GC 4547): 8 µg/mL (≈ 5.22 µM)
MIC Coagulase Negative Staphylococcus (GC 4548) ([3]; strain GC 4548): 2 µg/mL (≈ 1.31 µM)
MIC Coagulase Negative Staphylococcus (GC 4549) ([3]; strain GC 4549): 1 µg/mL (≈ 0.653 µM)
MIC Coagulase Negative Staphylococcus (GC 4551) ([3]; strain GC 4551): 2 µg/mL (≈ 1.31 µM)
MIC Coagulase Negative Staphylococcus (GC 6257) ([3]; strain GC 6257): 2 µg/mL (≈ 1.31 µM)
MIC Enterococcus avium (GC 4558) [4, 5]: 4 µg/mL (≈ 2.61 µM)
MIC Enterococcus faecalis (ATCC 29212) [4, 5]: 2 µg/mL (≈ 1.31 µM)
MIC Enterococcus faecalis (GC 2242) [4, 5]: 2 µg/mL (≈ 1.31 µM)
MIC Enterococcus faecalis (GC 2691) [4, 5]: 4 µg/mL (≈ 2.61 µM)
MIC Enterococcus faecalis (GC 3059) [4, 5]: 4 µg/mL (≈ 2.61 µM)
MIC Enterococcus faecalis (GC 4552) [4, 5]: 2 µg/mL (≈ 1.31 µM)
MIC Enterococcus faecalis (GC 4553) [4, 5]: 1 µg/mL (≈ 0.653 µM)
MIC Enterococcus faecalis (GC 4554) [4, 5]: 2 µg/mL (≈ 1.31 µM)
MIC Enterococcus faecalis (GC 6189) [4, 5]: 2 µg/mL (≈ 1.31 µM)
MIC Enterococcus faecium (GC 2243) [4, 5]: 2 µg/mL (≈ 1.31 µM)
MIC Enterococcus faecium (GC 4556) [4, 5]: 4 µg/mL (≈ 2.61 µM)
MIC Enterococcus faecium (GC 4557) [4, 5]: 4 µg/mL (≈ 2.61 µM)
MIC Enterococcus faecalis (ATCC 29212) ([4]; strain ATCC 29212): 2 µg/mL (≈ 1.31 µM)
MIC Enterococcus faecalis (GC 2242) ([4]; strain GC 2242): 2 µg/mL (≈ 1.31 µM)
MIC Enterococcus faecium (GC 2243) ([4]; strain GC 2243): 2 µg/mL (≈ 1.31 µM)
MIC Enterococcus faecalis (GC 2691) ([4]; strain GC 2691): 4 µg/mL (≈ 2.61 µM)
MIC Enterococcus faecalis (GC 3059) ([4]; strain GC 3059): 4 µg/mL (≈ 2.61 µM)
MIC Enterococcus faecalis (GC 4552) ([4]; strain GC 4552): 2 µg/mL (≈ 1.31 µM)
MIC Enterococcus faecalis (GC 4553) ([4]; strain GC 4553): 1 µg/mL (≈ 0.653 µM)
MIC Enterococcus faecalis (GC 4554) ([4]; strain GC 4554): 2 µg/mL (≈ 1.31 µM)
MIC Enterococcus faecium (GC 4556) ([4]; strain GC 4556): 4 µg/mL (≈ 2.61 µM)
MIC Enterococcus faecium (GC 4557) ([4]; strain GC 4557): 4 µg/mL (≈ 2.61 µM)
MIC Enterococcus avium (GC 4558) ([4]; strain GC 4558): 4 µg/mL (≈ 2.61 µM)
MIC Enterococcus faecalis (GC 6189) ([4]; strain GC 6189): 2 µg/mL (≈ 1.31 µM)
